Activity calls are given as the source filed them. The rule behind the calls is not given here.
Legend:
HCT-116 [1] = assay: Induction of RBM39 degradation in human HCT-116 cells assessed as fold change at 0.1 uM incubated for 24 hrs by Western blot analysis relative to control; type: cell-based
HCT-116 [2] = assay: Induction of RBM39 degradation in human HCT-116 cells assessed as fold change at 1 uM incubated for 24 hrs by Western blot analysis relative to control; type: cell-based
K562 [3] = assay: Effect on RNA splicing in human K562 cells assessed as RTTN gene skipping exon at 2 uM incubated for 12 hrs by RNA-seq analysis; type: functional, cell-based
K562 [4] = assay: Induction of spliceosome function impairment in human K562 cells assessed as increase in PRPF38A RI transcript incubated for 12 hrs by qRT-PCR analysis; type: functional, cell-based; settings: dose 1-10 µM
HCT-116 [5] = assay: Induction of spliceosome function impairment in human HCT-116 cells assessed as decrease in ZNF207 exon8-exon10 RNA level at 1 to 10 uM incubated for 12 hrs by qRT-PCR analysis; type: functional, cell-based; settings: dose 1-10 µM
HCT-116 [6] = assay: Effect on RNA splicing in human HCT-116 cells assessed as ESPL1 gene exon splicing at 2 uM incubated for 12 hrs by RNA-seq analysis; type: functional, cell-based
HCT-116 [7] = assay: Downregulation of RTTN expression in human HCT-116 cells incubated for 24 hrs by Western blot analysis; type: functional, cell-based
HCT-116 [8] = assay: Downregulation of CENPI expression in human HCT-116 cells incubated for 24 hrs by Western blot analysis; type: functional, cell-based
MV4-11 [9] = assay: Induction of spliceosome function impairment in human MV4-11 cells assessed as decrease in CUL4A transcript at 1 to 10 uM incubated for 12 hrs by qRT-PCR analysis; type: functional, cell-based; settings: dose 1-10 µM
HCT-116 [10] = assay: Induction of RBM39 degradation in human HCT-116 cells at 0.1 to 1 uM incubated for 24 hrs by Western blot analysis; type: cell-based; settings: dose 0.1-1 µM
K562 [11] = assay: Induction of spliceosome function impairment in human K562 cells assessed as increase in NCKAP1L RI transcript incubated for 12 hrs by qRT-PCR analysis; type: functional, cell-based; settings: dose 1-10 µM
[12] = Effect on RNA splicing in human HCT-116 cells assessed as number of alternative 5' splice sites at 2 uM incubated for 12 hrs by RNA-seq analysis; type: functional
HCT-116 [13] = assay: Induction of cell cycle arrest in human HCT-116 cells assessed as accumulation at G2/M phase at 1 uM by PI staining based flow cytometry; type: functional
HCT-116 [14] = assay: Induction of cell cycle arrest in human HCT-116 cells assessed as accumulation at G2/M phase at 0.1 to 5 uM incubated for 48 hrs by PI staining based flow cytometry; type: functional; settings: dose 0.1-5 µM
K562 [15] = assay: Effect on RNA splicing in human K562 cells assessed as ESPL1 gene alternative 5' splicing site at 2 uM incubated for 12 hrs by RNA-seq analysis; type: functional, cell-based
K562 [16] = assay: Effect on RNA splicing in human K562 cells assessed as KNL1 gene skipping exon at 2 uM incubated for 12 hrs by RNA-seq analysis; type: functional, cell-based
HCT-116 [17] = assay: Downregulation of KNL1 expression in human HCT-116 cells incubated for 24 hrs by Western blot analysis; type: functional, cell-based
HCT-116 [18] = assay: Induction of apoptosis in human HCT-116 cells at 0.1 to 5 uM incubated for 48 hrs by Annexin V-FITC/PI staining based flow cytometry; type: functional, cell-based; settings: dose 0.1-5 µM
HCT-116 [19] = assay: Effect on RNA splicing in human HCT-116 cells assessed as KNL1 gene exon splicing at 2 uM incubated for 12 hrs by RNA-seq analysis; type: functional, cell-based
MV4-11 [20] = assay: Induction of spliceosome function impairment in human MV4-11 cells assessed as decrease in ZNF207 transcript at 1 to 10 uM incubated for 12 hrs by qRT-PCR analysis; type: functional, cell-based; settings: dose 1-10 µM
HCT-116 [21] = assay: Antiproliferative activity against human HCT-116 cells incubated for 4 days by CCK8 assay; type: functional, cell-based; settings: HCT-116, 96 h
HCT-116 [22] = assay: Induction of RBM39 degradation in human HCT-116 cells at 0.05 to 5 uM incubated for 24 hrs in presence of MG132 by Western blot analysis; type: cell-based; settings: dose 0.05-5 µM
HCT-116 [23] = assay: Induction of RBM39 degradation in human HCT-116 cells at 1 uM incubated for 24 hrs by mass spectrometry-based proteomic analysis; type: cell-based
HCT-116 [24] = assay: Effect on RNA splicing in human HCT-116 cells assessed as CEP192 gene exon splicing at 2 uM incubated for 12 hrs by RNA-seq analysis; type: functional, cell-based
K562 [25] = assay: Induction of spliceosome function impairment in human K562 cells assessed as decrease in ZNF207 transcript at 1 to 10 uM incubated for 12 hrs by qRT-PCR analysis; type: functional, cell-based; settings: dose 1-10 µM
K562 [26] = assay: Induction of spliceosome function impairment in human K562 cells assessed as decrease in NCKAP1L transcript at 1 to 10 uM incubated for 12 hrs by qRT-PCR analysis; type: functional, cell-based; settings: dose 1-10 µM
HCT-116 [27] = assay: Effect on RNA splicing in human HCT-116 cells assessed as number of alternative 3' splice sites at 2 uM incubated for 12 hrs by RNA-seq analysis; type: functional
[28] = Effect on RNA splicing in human HCT-116 cells assessed as number of skipping exons at 2 uM incubated for 12 hrs by RNA-seq analysis; type: functional
HCT-116 [29] = assay: Induction of RBM39 degradation in human HCT-116 cells incubated for 24 hrs by Western blot analysis; type: cell-based
HCT-116 [30] = assay: Downregulation of CEP192 expression in human HCT-116 cells incubated for 24 hrs by Western blot analysis; type: functional, cell-based
MV4-11 [31] = assay: Induction of spliceosome function impairment in human MV4-11 cells assessed as increase in CUL4A RI transcript incubated for 12 hrs by qRT-PCR analysis; type: functional, cell-based; settings: dose 1-10 µM
K562 [32] = assay: Induction of spliceosome function impairment in human K562 cells assessed as decrease in CUL4A transcript at 1 to 10 uM incubated for 12 hrs by qRT-PCR analysis; type: functional, cell-based; settings: dose 1-10 µM
K562 [33] = assay: Induction of spliceosome function impairment in human K562 cells assessed as decrease in PRPF38A transcript at 1 to 10 uM incubated for 12 hrs by qRT-PCR analysis; type: functional, cell-based; settings: dose 1-10 µM
K562 [34] = assay: Induction of spliceosome function impairment in human K562 cells assessed as increase in CUL4A RI transcript incubated for 12 hrs by qRT-PCR analysis; type: functional, cell-based; settings: dose 1-10 µM
MV4-11 [35] = assay: Induction of spliceosome function impairment in human MV4-11 cells assessed as decrease in PRPF38A transcript at 1 to 10 uM incubated for 12 hrs by qRT-PCR analysis; type: functional, cell-based; settings: dose 1-10 µM
HCT-116 [36] = assay: Effect on mitosis in human HCT-116 cells assessed as disorganized spindle phenotype at 1 uM incubated for 48 hrs by immunofluorescence based analysis; type: functional, cell-based
MV4-11 [37] = assay: Induction of spliceosome function impairment in human MV4-11 cells assessed as increase in NCKAP1L RI transcript incubated for 12 hrs by qRT-PCR analysis; type: functional, cell-based; settings: dose 1-10 µM
[38] = Effect on RNA splicing in human HCT-116 cells assessed as number of retention of introns at 2 uM incubated for 12 hrs by RNA-seq analysis; type: functional
HCT-116 [39] = assay: Induction of cell cycle arrest in human HCT-116 cells assessed as accumulation at G2/M phase at 5 uM incubated for 48 hrs by PI staining based flow cytometry relative to control; type: functional

Row | SMILES | fold change (FC) (HCT-116 [1]) | fold change (FC) (HCT-116 [2]) | Activity (K562 [3]) | Activity (K562 [4]) | Activity (HCT-116 [5]) | Activity (HCT-116 [6]) | Activity (HCT-116 [7]) | Activity (HCT-116 [8]) | Activity (MV4-11 [9]) | Activity (HCT-116 [10]) | Activity (K562 [11]) | Activity [12] | Activity (HCT-116 [13]) | Activity (HCT-116 [14]) | Activity (K562 [15]) | Activity (K562 [16]) | Activity (HCT-116 [17]) | Activity (HCT-116 [18]) | Activity (HCT-116 [19]) | Activity (MV4-11 [20]) | also measured
1 | Cc1ccc(NS(=O)(=O)c2cccc(NC(=O)C(=O)N3CCC[C@@H]3CO)c2)c2[nH]cc(C#N)c12 | 0.61 | 0.21 | Active | Active | Active | Active | Dose-dependent-effect | Dose-dependent-effect | Active | Active | Active | 329 | Time-dependent-effect | Active | Active | Active | Dose-dependent-effect | inactive | Active | Active | IC50 (HCT-116 [21]): 36.7 nM; Activity (HCT-116 [22]): inactive; Activity (HCT-116 [23]): Active; Activity (HCT-116 [24]): Active; Activity (K562 [25]): Active; Activity (K562 [26]): Active; Activity (HCT-116 [27]): 745; Activity [28]: 8905; Activity (HCT-116 [29]): Dose-dependent-effect; Activity (HCT-116 [30]): Dose-dependent-effect; Activity (MV4-11 [31]): Active; Activity (K562 [32]): Active; Activity (K562 [33]): Active; Activity (K562 [34]): Active; Activity (MV4-11 [35]): Active; Activity (HCT-116 [36]): Active; Disorganized Spindle Phenotype Was Characterized By Random Microtubule Distribution Surrounding Condensed And Undivided Chromosomes; Activity (MV4-11 [37]): Active; Activity [38]: 1098; Activity (HCT-116 [39]): 60%
2 | NS(=O)(=O)c1ccc(S(=O)(=O)Nc2cccc3c(Cl)c[nH]c23)cc1 [INDISULAM] | 0.59 | 0.16 | Active | Active | Active | Active | Dose-dependent-effect | Dose-dependent-effect | Active | Active | Active | 389 | Time-dependent-effect | Active | Active | Active | Dose-dependent-effect | inactive | Active | Active | IC50 (HCT-116 [21]): 96.8 nM; Activity (HCT-116 [22]): inactive; Activity (HCT-116 [23]): Active; Activity (HCT-116 [24]): Active; Activity (K562 [25]): Active; Activity (K562 [26]): Active; Activity (HCT-116 [27]): 836; Activity [28]: 10485; Activity (HCT-116 [29]): Dose-dependent-effect; Activity (HCT-116 [30]): Dose-dependent-effect; Activity (MV4-11 [31]): Active; Activity (K562 [32]): Active; Activity (K562 [33]): Active; Activity (K562 [34]): Active; Activity (MV4-11 [35]): Active; Activity (HCT-116 [36]): Active; Disorganized Spindle Phenotype Was Characterized By Random Microtubule Distribution Surrounding Condensed And Undivided Chromosomes; Activity (MV4-11 [37]): Active; Activity [38]: 1378; Activity (HCT-116 [39]): 55%
